Measurements published in the NIST ThermoML archive (doi:10.1021/je900266h).

Assay: refractive index (Na D-line) (dimensionless); wn = mass fraction of the nth substance listed
Conditions: 101 kPa, Liquid, Standard Abbe refractometry

CCO [ethanol] + O
refractive index
Conditions | 288.15 K | 298.15 K | 308.15 K | 318.15 K
w1 = 0.02468 | 1.33491 | 1.33402 | 1.33282 | 1.33124
w1 = 0.0538 | 1.33686 | 1.33587 | 1.33455 | 1.33301
w1 = 0.07815 | 1.33854 | 1.33765 | 1.33619 | 1.33449
w1 = 0.1014 | 1.34032 | 1.33915 | 1.33771 | 1.3358
w1 = 0.1249 | 1.34209 | 1.34095 | 1.33923 | 1.33736
w1 = 0.1528 | 1.34443 | 1.34294 | 1.34104 | 1.33895
w1 = 0.1778 | 1.34627 | 1.34475 | 1.34272 | 1.34054
w1 = 0.2036 | 1.34829 | 1.34651 | 1.34435 | 1.3418
w1 = 0.225 | 1.34976 | 1.34781 | 1.34551 | 1.34311
w1 = 0.247 | 1.35137 | 1.34934 | 1.34682 | 1.34418
w1 = 0.2699 | 1.35281 | 1.35056 | 1.3479 | 1.34519
w1 = 0.2955 | 1.35435 | 1.35212 | 1.34922 | 1.3464
w1 = 0.3241 | 1.35595 | 1.35363 | 1.35053 | 1.34772
w1 = 0.3468 | 1.3572 | 1.3546 | 1.35164 | 1.34853
w1 = 0.3723 | 1.35843 | 1.35567 | 1.35252 | 1.34932
w1 = 0.3959 | 1.3597 | 1.35665 | 1.35342 | 1.34997
w1 = 0.4255 | 1.36073 | 1.35765 | 1.35448 | 1.35103
w1 = 0.4462 | 1.36161 | 1.35831 | 1.35501 | 1.35147
w1 = 0.4735 | 1.36235 | 1.35919 | 1.35566 | 1.35212
w1 = 0.4969 | 1.36316 | 1.35969 | 1.3562 | 1.35251
w1 = 0.5239 | 1.36378 | 1.36042 | 1.35667 | 1.35301
w1 = 0.5458 | 1.36431 | 1.36078 | 1.35731 | 1.3533
w1 = 0.5709 | 1.36482 | 1.36134 | 1.3577 | 1.35369
w1 = 0.5972 | 1.36547 | 1.36186 | 1.35801 | 1.35385
w1 = 0.6203 | 1.36582 | 1.36199 | 1.35825 | 1.35417
w1 = 0.6467 | 1.36603 | 1.36243 | 1.35839 | 1.3543
w1 = 0.6694 | 1.36636 | 1.36263 | 1.35867 | 1.35455
w1 = 0.6959 | 1.36665 | 1.36288 | 1.35875 | 1.35454
w1 = 0.7187 | 1.36663 | 1.36306 | 1.35892 | 1.35469
w1 = 0.7494 | 1.36702 | 1.36313 | 1.35895 | 1.35471
w1 = 0.7672 | 1.36703 | 1.36317 | 1.35902 | 1.35475
w1 = 0.7993 | 1.36694 | 1.36318 | 1.35879 | 1.35484
w1 = 0.8187 | 1.36705 | 1.3632 | 1.35887 | 1.35478
w1 = 0.8451 | 1.36683 | 1.36289 | 1.3586 | 1.35457
w1 = 0.867 | 1.36684 | 1.36278 | 1.35844 | 1.35421
w1 = 0.9028 | 1.36637 | 1.3623 | 1.35782 | 1.35374
w1 = 0.9235 | 1.36603 | 1.36196 | 1.35743 | 1.35333
w1 = 0.9481 | 1.36528 | 1.36123 | 1.35677 | 1.35255
w1 = 0.9752 | 1.36454 | 1.36037 | 1.3559 | 1.35171
w1 = 1 | 1.36344 | 1.35922 | 1.35477 | 1.35068
